Test results: patent US20220351806A1, “Biomarker Panels for Guiding Dysregulated Host Response Therapy” (Endpoint Health Inc., priority 2019, published 2022)

Tested on: burn-induced SIRS patients
Assay: Burn-Induced SIRS trial survival analysis, hydrocortisone vs placebo, by patient subtype classifier
Assay type: in vivo, human
Design: lower mortality in the hydrocortisone group when compared to the placebo group / Mortality reduction / Mortality rate: concentration or dose not given beside the values
Settings: for Alive / Dead / Mortality rate / Survival rate: Hydro arm; for Alive / Dead / Mortality rate / Survival rate / Mortality Reduction Group / Mortality reduction: day 28; for Mortality Reduction Group: Hydro vs Placebo
Source text: The test expression data from each trial were normalized by the platform normalization matrix described above^13 so that the test data were more consistent with the training data. The classifiers (e.g., the Full Model, the SS Model, the S Model, and the P Model) were then applied to the normalized data such that the patients were classified into A, B, and C subtypes. […] Therefore, each sample in the target samples was normalized independently with the normalization matrix of the sample array platform.
Survival and mortality rates were calculated at day 28 because survival and mortality labels at other time points were not available. […] Binomial and Chi-squared with continuity correction tests were used to test for the significance of these differences.
The chi-squared p-value was calculated with continuity correction when computed for 2-by-2 tables.

[1] = Full Model, Total (all subtypes)

**Q.** Which results are given for `C[C@]12CCC(=O)C=C1CC[C@@H]1[C@@H]2[C@@H](O)C[C@@]2(C)[C@H]1CC[C@]2(O)C(=O)CO` [Hydro, hydrocortisone]?
**A.** Alive [1]: 9; Dead [1]: 6; Mortality rate [1]: 40.0%; Survival rate [1]: 60.0%; Mortality Reduction Group [1]: Placebo; Mortality reduction (Full Model, Total (all subtypes), reduction group Placebo): 66.7%; Alive (Full Model, subtype A): 2; Dead (Full Model, subtype A): 1; Survival rate (Full Model, subtype A): 66.7%; Mortality Reduction Group (Full Model, subtype A): Placebo; Mortality reduction (Full Model, subtype A, reduction group Placebo): 100.0%; Alive (Full Model, subtype B): 6; Dead (Full Model, subtype B): 1; Mortality rate (Full Model, subtype B): 14.3%; Survival rate (Full Model, subtype B): 85.7%; Mortality Reduction Group (Full Model, subtype B): Hydro; Mortality reduction (Full Model, subtype B, reduction group Hydro): 64.3%; Alive (Full Model, subtype C): 1; Dead (Full Model, subtype C): 4; Mortality rate (Full Model, subtype C): 80.0%; Survival rate (Full Model, subtype C): 20.0%; Mortality Reduction Group (Full Model, subtype C): Placebo; Mortality reduction (Full Model, subtype C, reduction group Placebo): 100.0%; Alive (Full Model, subtypes CA): 3; Dead (Full Model, subtypes CA): 5; Mortality rate (Full Model, subtypes CA): 62.5%; Survival rate (Full Model, subtypes CA): 37.5%; Mortality Reduction Group (Full Model, subtypes CA): Placebo; Mortality reduction (Full Model, subtypes CA, reduction group Placebo): 100.0%; Alive (P Model, Total (all subtypes)): 9; Dead (P Model, Total (all subtypes)): 6; Mortality rate (P Model, Total (all subtypes)): 40.0%; Survival rate (P Model, Total (all subtypes)): 60.0%; Mortality Reduction Group (P Model, Total (all subtypes)): Placebo; Mortality reduction (P Model, Total (all subtypes), reduction group Placebo): 66.7%; Alive (P Model, subtype A): 4; Dead (P Model, subtype A): 1; Mortality rate (P Model, subtype A): 20.0%; Survival rate (P Model, subtype A): 80.0%; Mortality Reduction Group (P Model, subtype A): Placebo; Mortality reduction (P Model, subtype A, reduction group Placebo): 100.0%; Alive (P Model, subtype B): 5; Dead (P Model, subtype B): 1; Survival rate (P Model, subtype B): 83.3%; Mortality Reduction Group (P Model, subtype B): Hydro; Mortality reduction (P Model, subtype B, reduction group Hydro): 50.0%; Alive (P Model, subtype C): 0; Dead (P Model, subtype C): 4; Mortality rate (P Model, subtype C): 100.0%; Survival rate (P Model, subtype C): 0.0%; Mortality Reduction Group (P Model, subtype C): Placebo; Mortality reduction (P Model, subtype C, reduction group Placebo): 100.0%; Alive (P Model, subtypes CA): 4; Dead (P Model, subtypes CA): 5; Mortality rate (P Model, subtypes CA): 55.6%; Survival rate (P Model, subtypes CA): 44.4%; Mortality Reduction Group (P Model, subtypes CA): Placebo; Mortality reduction (P Model, subtypes CA, reduction group Placebo): 100.0%; Alive (S Model, Total (all subtypes)): 9; Dead (S Model, Total (all subtypes)): 6; Mortality rate (S Model, Total (all subtypes)): 40.0%; Survival rate (S Model, Total (all subtypes)): 60.0%; Mortality Reduction Group (S Model, Total (all subtypes)): Placebo; Mortality reduction (S Model, Total (all subtypes), reduction group Placebo): 66.7%; Alive (S Model, subtype A): 3; Dead (S Model, subtype A): 2; Mortality rate (S Model, subtype A): 40.0%; Survival rate (S Model, subtype A): 60.0%; Mortality Reduction Group (S Model, subtype A): Placebo; Mortality reduction (S Model, subtype A, reduction group Placebo): 58.3%; Alive (S Model, subtype B): 6; Dead (S Model, subtype B): 1; Mortality rate (S Model, subtype B): 14.3%; Survival rate (S Model, subtype B): 85.7%; Mortality Reduction Group (S Model, subtype B): Hydro; Mortality reduction (S Model, subtype B, reduction group Hydro): 28.6%; Alive (S Model, subtype C): 0; Dead (S Model, subtype C): 3; Mortality rate (S Model, subtype C): 100.0%; Survival rate (S Model, subtype C): 0.0%; Mortality Reduction Group (S Model, subtype C): Placebo; Mortality reduction (S Model, subtype C, reduction group Placebo): 100.0%; Alive (S Model, subtypes CA): 3; Dead (S Model, subtypes CA): 5; Mortality rate (S Model, subtypes CA): 62.5%; Survival rate (S Model, subtypes CA): 37.5%; Mortality Reduction Group (S Model, subtypes CA): Placebo; Mortality reduction (S Model, subtypes CA, reduction group Placebo): 84.0%; lower mortality in the placebo group when compared to the hydrocortisone therapy group (SIRS patients, 28-day, C subtype, Full Model): 100%; lower mortality in the placebo group when compared to the hydrocortisone therapy group (SIRS patients, 28-day, C subtype, P Model): 100%; lower mortality in the placebo group when compared to the hydrocortisone therapy group (SIRS patients, 28-day, C subtype, S Model): 100%; lower mortality in the placebo group when compared to the hydrocortisone therapy group (SIRS patients, 28-day, C subtype, SS Model): 65%; lower mortality in the placebo group when compared to the hydrocortisone therapy group (SIRS patients, 28-day, subtype A, Full, S, and P Models): 100%; lower mortality in the hydrocortisone group when compared to the placebo group (SIRS patients, 28-day, subtype B, S Model): 28.6%; Alive (SS Model, Total (all subtypes)): 9; Dead (SS Model, Total (all subtypes)): 6; Mortality rate (SS Model, Total (all subtypes)): 40.0%; Survival rate (SS Model, Total (all subtypes)): 60.0%; Mortality Reduction Group (SS Model, Total (all subtypes)): Placebo; Mortality reduction (SS Model, Total (all subtypes), reduction group Placebo): 66.7%; Alive (SS Model, subtype A): 4; Dead (SS Model, subtype A): 2; Survival rate (SS Model, subtype A): 66.7%; Mortality Reduction Group (SS Model, subtype A): Placebo; Mortality reduction (SS Model, subtype A, reduction group Placebo): 40.0%; Alive (SS Model, subtype B): 2; Dead (SS Model, subtype B): 0; Mortality rate (SS Model, subtype B): 0.0%; Survival rate (SS Model, subtype B): 100.0%; Mortality Reduction Group (SS Model, subtype B): Placebo; Alive (SS Model, subtype C): 3; Dead (SS Model, subtype C): 4; Mortality rate (SS Model, subtype C): 57.1%; Survival rate (SS Model, subtype C): 42.9%; Mortality Reduction Group (SS Model, subtype C): Placebo; Mortality reduction (SS Model, subtype C, reduction group Placebo): 65.0%; Alive (SS Model, subtypes CA): 7; Dead (SS Model, subtypes CA): 6; Mortality rate (SS Model, subtypes CA): 46.2%; Survival rate (SS Model, subtypes CA): 53.8%; Mortality Reduction Group (SS Model, subtypes CA): Placebo; Mortality reduction (SS Model, subtypes CA, reduction group Placebo): 56.7%
